Reference: patent US20230286969A1, “AROMATIC SPIRO RING AMIDE DERIVATIVES FOR THE TREATMENT AND PROPHYLAXIS OF HEPATITIS B VIRUS INFECTION” (Hoffmann-La Roche Inc., priority 2020, published 2023)

Experiments:
Format in all cases: cell-based
HBsAg = assay: PHH HBV natural infection assay, HBsAg (alphalisa); details: Hepatitis B virus, Hepatocyte, 72 h, read-out: HBsAg IC50, HBV-infected primary human hepatocytes, supernatant, compound medium refreshed two times with 72-hour interval
Method: (§1) Detailed procedures regarding primary human hepatocyte (PHH) HBV natural infection assay are described as below. One tube of frozen PHH (10 million cells) is thawed in 37° C. water bath and then transferred to 20 mL of PHH thawing medium (Sigma, InVitroGRO HT Medium, Cat. S03319) with gently mixing. The cells were then centrifuged at […] for 5 min, the supernatant was discarded and the tube was refilled with 25 mL of PHH plating medium (Sigma, InVitroGRO CP Medium, Cat. S03317). The tube was shaken very gently to re-suspend all cells, and then 50 μl of cells were transferred to each well 384-well collagen I coated plate with appropriate liquid handling equipment, e.g. Integra VIAFLO384 or Agilent Bravo. The cells were then cultured for 24 hours in a cell incubator. For HBV infection, after PHH attachment on the culture plate, the plating medium was removed and replenished with PHH culture medium containing HBV virus. The PHH culture medium was prepared with Dulbecco's Modified Eagle Medium (DMEM)/F12 (1:1 in volume ratio) containing 10% fetal bovine serum (Gibco, Cat. 10099141), 5 ng/mL human epidermal growth factor (Gibco, Cat.PHG0311L), 20 ng/mL dexamethasone (Sigma, Cat.D4902-100 mg), 250 ng/mL human recombinant insulin (Gibco, Cat.41400045) and 100 U/mL penicillin. HBV virus at 200 genome equivalent (GE) per cell with 4% PEG8000 (Sigma, Cat.P1458) containing culture medium were added to the PHH culture medium for infection. The cells were then cultured for 24 hours in cell incubator. Then the cell culture supernatant was removed. The HBV-infected PHH were cultured with sandwich culture method with PHH culture medium containing 1% DMSO and 0.25 mg/mL matrix gel for 72 hours. The supernatant was then refreshed with PHH culture medium containing different concentrations of testing compounds for two times with 72-hour interval. At the end of treatment, the supernatant was collected for viral markers measurements, including HBsAg, HBeAg, HBV DNA and cytotoxicity. HBsAg and HBeAg were detected using alphalisa method using their specific antibodies. For HBV DNA detection, HBV DNA Quantitative Fluorescence Diagnostic Kit (Sansure Biotech Inc.) was used following the manufacture's protocol. Cytotoxicity was determined using Cell Counting Kit-8 (CCK8, Dojindo Molecular Technologies, Inc.).
(§2) The compounds of the present invention were tested for their capacity to inhibit HBsAg and HBeAg as described herein.

HBeAg = assay: PHH HBV natural infection assay, HBeAg (alphalisa); details: Hepatitis B virus, Hepatocyte, 72 h, read-out: HbeAg IC50, HBV-infected primary human hepatocytes, supernatant, compound medium refreshed two times with 72-hour interval
Method: as §1, §2

[1] = PHH natural infection assay, cytotoxicity (Cell Counting Kit-8); details: human, HBV-infected primary human hepatocytes, CCK8, end of treatment
Method: as §1

SMILES | IC50 (HBsAg) [µM] | IC50 (HBeAg) [µM] | CC50 at 144 h [1] [µM]
COCCOCCOCC(=O)NS(=O)(=O)c1ccc(C(=O)N[C@H]2CC3(C2)C[C@H](c2nc4cc(Cl)ccc4o2)C3)o1 (single isomer, unassigned) [Example 79, (Sa)—N-[6-(5-chloro-1,3-benzoxazol-2-yl)spiro[3.3]heptan-2-yl]-5-[[2-[2-(2-methoxyethoxy)ethoxy]acetyl]sulfamoyl]furan-2-carboxamide, or (Ra)—N-[6-(5-chloro-1,3-benzoxazol-2-yl)spiro[3.3]heptan-2-yl]-5-[[2-[2-(2-methoxyethoxy)ethoxy]acetyl]sulfamoyl]furan-2-carboxamide] | 6.13 | 4.65 | > 10
O=C(NC1CC2(C1)CC(c1nc3cc(Cl)ccc3o1)C2)c1ccc(C(F)(F)F)o1 (stereo not drawn) [Example 1, N-[6-(5-chloro-1,3-benzoxazol-2-yl)spiro[3.3]heptan-2-yl]-5-(trifluoromethyl)furan-2-carboxamide] | 3.63 | 2.29 | 96.8
N#Cc1ccc(C(=O)NC2CC3(C2)CC(c2nc4cc(Cl)ccc4o2)C3)o1 (stereo not drawn) [Example 2, N-[6-(5-chloro-1,3-benzoxazol-2-yl)spiro[3.3]heptan-2-yl]-5-cyano-furan-2-carboxamide] | 5.86 | 4.06 | 61.6
O=C(NC1CC2(C1)CC(c1nc3cc(Cl)ccc3o1)C2)c1ccc(Br)o1 (stereo not drawn) [Example 3, 5-bromo-N-[6-(5-chloro-1,3-benzoxazol-2-yl)spiro[3.3]heptan-2-yl]furan-2-carboxamide] | 9.79 | 7.64 | 96.2
O=C(NC1CC2(C1)CC(c1nc3cc(Cl)ccc3o1)C2)c1cc(Br)co1 (stereo not drawn) [Example 4, 4-bromo-N-[6-(5-chloro-1,3-benzoxazol-2-yl)spiro[3.3]heptan-2-yl]furan-2-carboxamide] | 5.57 | 2.94 | 56
O=C(NC1CC2(C1)CC(c1nc3cc(Cl)ccc3o1)C2)c1occc1Br (stereo not drawn) [Example 5, 3-bromo-N-[6-(5-chloro-1,3-benzoxazol-2-yl)spiro[3.3]heptan-2-yl]furan-2-carboxamide] | 8.19 | 6.29 | 73.2
O=C(NC1CC2(C1)CC(c1nc3cc(Cl)ccc3o1)C2)c1ccc(Cl)o1 (stereo not drawn) [Example 6, 5-chloro-N-[6-(5-chloro-1,3-benzoxazol-2-yl)spiro[3.3]heptan-2-yl]furan-2-carboxamide] | 2.77 | 2.08 | > 100
CC(C)c1ccc(C(=O)NC2CC3(C2)CC(c2nc4cc(Cl)ccc4o2)C3)o1 (stereo not drawn) [Example 7, N-[6-(5-chloro-1,3-benzoxazol-2-yl)spiro[3.3]heptan-2-yl]-5-isopropyl-furan-2-carboxamide] | 3.57 | 1.34 | 85.9
COc1ccc(C(=O)NC2CC3(C2)CC(c2nc4cc(Cl)ccc4o2)C3)o1 (stereo not drawn) [Example 8, N-[6-(5-chloro-1,3-benzoxazol-2-yl)spiro[3.3]heptan-2-yl]-5-methoxy-furan-2-carboxamide] | 7.96 | 5.84 | 94.2
COCc1ccc(C(=O)NC2CC3(C2)CC(c2nc4cc(Cl)ccc4o2)C3)o1 (stereo not drawn) [Example 9, N-[6-(5-chloro-1,3-benzoxazol-2-yl)spiro[3.3]heptan-2-yl]-5-(methoxymethyl)furan-2-carboxamide] | 1.57 | 1.01 | 91
O=C(NC1CC2(C1)CC(c1nc3cc(Cl)ccc3o1)C2)c1ccc(C(=O)C2CC2)o1 (stereo not drawn) [Example 10, N-[6-(5-chloro-1,3-benzoxazol-2-yl)spiro[3.3]heptan-2-yl]-5-(cyclopropanecarbonyl)furan-2-carboxamide] | 3.35 | 2.94 | 96.1
NC(=O)c1ccc(C(=O)NC2CC3(C2)CC(c2nc4cc(Cl)ccc4o2)C3)o1 (stereo not drawn) [Example 11, N2-[6-(5-Chloro-1,3-benzoxazol-2-yl)spiro[3.3]heptan-2-yl]furan-2,5-dicarboxamide] | 5.88 | 5.22 | > 10
O=C(NC1CC2(C1)CC(c1nc3cc(Cl)ccc3o1)C2)c1cc(C(F)(F)F)n[nH]1 (stereo not drawn) [Example 12, N-[6-(5-chloro-1,3-benzoxazol-2-yl)spiro[3.3]heptan-2-yl]-3-(trifluoromethyl)-1H-pyrazole-5-carboxamide] | 3.96 | 6.86 | 30.2
Cn1cc(C(=O)NC2CC3(C2)CC(c2nc4cc(Cl)ccc4o2)C3)cn1 (stereo not drawn) [Example 13, N-[6-(5-chloro-1,3-benzoxazol-2-yl)spiro[3.3]heptan-2-yl]-1-methyl-pyrazole-4-carboxamide] | 9.81 | 6.2 | > 100
C[S+]([O-])c1ccc(C(=O)NC2CC3(C2)CC(c2nc4cc(Cl)ccc4o2)C3)o1 (stereo not drawn) [Example 14, N-[6-(5-chloro-1,3-benzoxazol-2-yl)spiro[3.3]heptan-2-yl]-5-methylsulfinyl-furan-2-carboxamide] | 1.61 | 0.854 | 76.5
CS(=O)(=O)c1ccc(C(=O)NC2CC3(C2)CC(c2nc4cc(Cl)ccc4o2)C3)o1 (stereo not drawn) [Example 15, N-[6-(5-chloro-1,3-benzoxazol-2-yl)spiro[3.3]heptan-2-yl]-5-methylsulfonyl-furan-2-carboxamide] | 1.95 | 1.17 | 79
CCS(=O)(=O)c1ccc(C(=O)NC2CC3(C2)CC(c2nc4cc(Cl)ccc4o2)C3)o1 (stereo not drawn) [Example 16, N-[6-(5-chloro-1,3-benzoxazol-2-yl)spiro[3.3]heptan-2-yl]-5-ethylsulfonyl-furan-2-carboxamide] | 1.53 | 1.03 | 74
O=C(NC1CC2(C1)CC(c1nc3cc(Cl)ccc3o1)C2)c1ccc(S(=O)(=O)C2CC2)o1 (stereo not drawn) [Example 17, N-[6-(5-chloro-1,3-benzoxazol-2-yl)spiro[3.3]heptan-2-yl]-5-cyclopropylsulfonyl-furan-2-carboxamide] | 0.275 | 0.177 | 89.9
O=C(NC1CC2(C1)CC(c1nc3cc(Cl)ccc3o1)C2)c1ccc(S(=O)(=O)C2COC2)o1 (stereo not drawn) [Example 18, N-[6-(5-chloro-1,3-benzoxazol-2-yl)spiro[3.3]heptan-2-yl]-5-(oxetan-3-ylsulfonyl)furan-2-carboxamide] | 3.27 | 1.81 | 72.1
O=C(NC1CC2(C1)CC(c1nc3cc(Cl)ccc3o1)C2)c1ccc([S+]([O-])CC2CC2)o1 (stereo not drawn) [Example 19, N-[6-(5-chloro-1,3-benzoxazol-2-yl)spiro[3.3]heptan-2-yl]-5-(cyclopropylmethylsulfinyl)furan-2-carboxamide] | 0.036 | 0.045 | 94.5
O=C(NC1CC2(C1)CC(c1nc3cc(Cl)ccc3o1)C2)c1ccc(S(=O)(=O)CC2CC2)o1 (stereo not drawn) [Example 20, N-[6-(5-chloro-1,3-benzoxazol-2-yl)spiro[3.3]heptan-2-yl]-5-(cyclopropylmethylsulfonyl)furan-2-carboxamide] | 0.445 | 0.18 | 89.2
CC(C)C[S+]([O-])c1ccc(C(=O)NC2CC3(C2)CC(c2nc4cc(Cl)ccc4o2)C3)o1 (stereo not drawn) [Example 21, N-[6-(5-chloro-1,3-benzoxazol-2-yl)spiro[3.3]heptan-2-yl]-5-isobutylsulfinyl-furan-2-carboxamide] | 0.372 | 0.314 | 92.4
CC(C)CS(=O)(=O)c1ccc(C(=O)NC2CC3(C2)CC(c2nc4cc(Cl)ccc4o2)C3)o1 (stereo not drawn) [Example 22, N-[6-(5-chloro-1,3-benzoxazol-2-yl)spiro[3.3]heptan-2-yl]-5-isobutylsulfonyl-furan-2-carboxamide] | 0.506 | 0.264 | 75.6
O=C(NC1CC2(C1)CC(c1nc3cc(Cl)ccc3o1)C2)c1ccc(S(=O)(=O)CC2CCC2)o1 (stereo not drawn) [Example 23, N-[6-(5-chloro-1,3-benzoxazol-2-yl)spiro[3.3]heptan-2-yl]-5-(cyclobutylmethylsulfonyl)furan-2-carboxamide] | 0.321 | 0.883 | > 100
